Data from US12059230B2, “Extending fluorescent assays in vivo for biomedical sensing: wavelength modulation spectroscopy” (MASSACHUSETTS INSTITUTE OF TECHNOLOGY, priority 2019, dated 2024).

Assays:
[1] = In vivo sensor response to riboflavin injection in SKH1-E mouse (intraperitoneal implant); settings: 300 μM riboflavin injected through catheter
Excerpt: FIGS. 5A-5H depict in vivo sensing. […] Scale bars are 5 mm. […] Sham stands for gels without a sensor, flipped configuration represents a mouse laying on its back with the signal passing through the full thickness of the animal body. […] The scale bar is 5 mm. […] The single laser excitation was at 730 nm. WIFF system was modulated at 2 Hz between 680, 730, and 780 nm. The emission collection was at >1100 nm.
FIGS. 32A-32B depict sensing experiments with mice. […] Five replicas on biologically independent animals. Sensors (10×10×2 mm^3 gel with 20 mg/l (AC)15-SWNTs)) were implanted into the intraperitoneal space of mice. […] The time t=0 corresponds to the time of injection.
The ultimate goal of fluorescent sensing is to detect analytes in vivo at the implantation point and wirelessly transmit the signal to the surface of the body. […] These types of measurements are critical for many biomedical problems focused on tissue permeability, such as targeted delivery of therapeutics, and changes in vascular permeability related to disorders, either as the origin or manifestation of various diseases. […]

[2] = In vitro hydrogel dynamics: sensor response fitted to the diffusion equation; format: physicochemical; settings: 10×10×2 mm^3 gel with 20 mg/l (AC)15-SWNTs, 100 μM riboflavin
Description: FIG. 33 depicts in vitro hydrogel dynamics. […] The black curve represents the measured data, while the red line is a fit to the diffusion equation, yielding a diffusion constant of 1.04×10^−6 cm^2/s.
Hydrogel preparation. The nanotube embedded hydrogels were prepared using polyethylene glycol diacrylate from Alfa Aesar using a PEG chain length of 8000 Da (PEG8000DA). The UV triggered initiator was 2-hydroxy-4′-(2-hydroxyethoxy)-2-methylpropiophenone from Sigma Aldrich and was dissolved in a stock solution of 7 mg/mL in water before polymerization. […] The hydrogel precursor solution is held under a flowing N2 atmosphere for 30 minutes to remove dissolved oxygen. After degassing, the solution is pipetted into glass molds and returned to the nitrogen atmosphere. The molds are then exposed to 365 nm UV light (UVP Blak-Ray XX-15BLB) for 45 minutes to polymerize. Afterwards, the hydrogels were removed from the molds and left to incubate in 1×PBS overnight to remove any unreacted monomer to free-floating SWNT. Then the PBS solution was exchanged to a fresh solution and the hydrogels were ready to use.
The interaction between an analyte and the hydrogel sensor is further described with analyte diffusion. The mathematical model solves the following nondimensionalized unsteady diffusion model and boundary conditions: […]

diffusion constant in the hydrogel [2]: 1.04×10^−6 cm^2/s
Compound: Cc1cc2nc3c(=O)[nH]c(=O)nc-3n(C[C@H](O)[C@H](O)[C@H](O)CO)c2cc1C [riboflavin]
onset time of quenching after the injection [1]: 51 s | sensor quenching ([1]; intraperitoneal sensor, WIFF): 17%
